Target: T1, human Edg-1 (S1P1) (Homo sapiens, UniProt P21453)
T1 construct: expressed in transfected cells; host or cells: HEK-293
Test: S1P1 binding assay: inhibition of [33P]-S1P binding to membrane fraction of HEK-293 cells transferred with the human Edg-1 (S1P1) gene
Settings: test compound at 10 μM; inhibition of [33P]-S1P binding to the membrane fraction of HEK-293 cells expressing human Edg-1 (S1P1)
Experimental: The membrane fraction was obtained by treating the cells with a solubilizing buffer (1 mM Tris/HCl, pH 7.2) for 10 minutes on ice, centrifuging at 1000×g for 5 minutes to remove insoluble fractions, and then centrifuging at 40000×g for 30 minutes at 4° C. The resulting membrane fraction was dissolved in a binding buffer (20 mM Tris-HCl, pH 7.4, 100 mM NaCl, 15 mM NaF, 2 mM deoxypyridoxine, 4 mg/mL fatty acid-free BSA), and then [^33P]-S1P (manufactured by ARC, final concentration 0.1 nM) and a DMSO solution (final concentration of the compound 10^−5M, final concentration of DMSO 0.1%) of the test compound were added. Thereafter, the mixture was stirred and then treated for one hour at 30° C. Using a harvester, the membrane fraction was harvested onto unifilter-96 GF/C filter (manufactured by Perkin Elmer), washing was carried out four times with the binding buffer, and the filter was dried. Twenty five μL Microscint 0 (manufactured by Perkin Elmer) was added, and radioactivity was measured using Top Count NXT (manufactured by Packard) to calculate the amount (A) of [^33P]-S1P bound to the membrane fraction at the time when the compound was added.
The same procedure was carried out in the absence of the test compound, and the amount (B) of [^33P]-S1P bound was calculated. Further, the same procedure was carried out in the absence of the test compound by use of HEK-293 cells to which no Edg-1 (S1P1) gene was introduced, and the background amount (C) of [^33P]-S1P bound was calculated.
Inhibition rate (%)=[1−(A−C)/(B−C)]×100
Further, concentrations (IC50) at the time when binding in the absence of the test compound was inhibited by 50% were calculated. The membrane system binding assay was carried out in the presence of test compounds with various concentrations, and the Edg-1 (S1P1) binding inhibition rates were calculated using the equation above. Then, IC50 values were calculated using Origin (Lightstone Corp.), a software for data analysis.

T1 sequence (P21453 whole entry): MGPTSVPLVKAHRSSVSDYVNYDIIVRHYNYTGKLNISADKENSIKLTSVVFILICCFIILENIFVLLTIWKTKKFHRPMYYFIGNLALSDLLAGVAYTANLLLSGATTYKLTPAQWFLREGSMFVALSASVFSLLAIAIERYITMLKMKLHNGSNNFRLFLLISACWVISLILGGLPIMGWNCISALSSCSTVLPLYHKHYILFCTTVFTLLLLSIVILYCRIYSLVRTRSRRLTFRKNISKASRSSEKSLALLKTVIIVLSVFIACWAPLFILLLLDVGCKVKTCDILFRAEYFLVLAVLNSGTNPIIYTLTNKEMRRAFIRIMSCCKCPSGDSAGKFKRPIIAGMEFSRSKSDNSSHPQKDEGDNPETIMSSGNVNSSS

inhibition at 10 µM [%] | SMILES
60.2 | CCn1c(Oc2ccc(F)cc2)nnc1[C@@H](C)NS(=O)(=O)c1cccc(C(C)=O)c1 [Compound 306]
94.4 | CCn1c(Oc2ccc(F)cc2)nnc1[C@@H](C)NS(=O)(=O)c1ccc(F)c2ccccc12 [Compound 307]
76.5 | CCc1ccc(OC)c(S(=O)(=O)N[C@H](C)c2nnc(Oc3ccc(F)cc3)n2CC)c1 [Compound 311]
52.2 | CCn1c(Oc2ccc(F)cc2)nnc1[C@@H](C)NS(=O)(=O)c1ccc(Cl)c(S(N)(=O)=O)c1 [Compound 314]
78.9 | CCn1c(Oc2ccc(F)cc2)nnc1[C@@H](C)NS(=O)(=O)c1ccc(Br)c(C(F)(F)F)c1 [Compound 318]
61.7 | CCn1c(Oc2ccc(F)cc2)nnc1[C@@H](C)NS(=O)(=O)c1cc(Br)cc(C(F)(F)F)c1 [Compound 319]
77.9 | CCn1c(Oc2ccc(F)cc2)nnc1[C@@H](C)NS(=O)(=O)c1cc2ccccc2s1 [Compound 323]
81.8 | CCn1c(Cc2ccc(F)cc2)nnc1[C@@H](C)NS(=O)(=O)c1csc2ccccc12 [Compound 324]
92.3 | CCn1c(Oc2ccc3cc[nH]c3c2)nnc1[C@@H](C)NS(=O)(=O)c1ccc(C(C)=O)cc1 [Compound 327]
85.2 | CCn1c(Oc2ccc3cc[nH]c3c2)nnc1[C@@H](C)NS(=O)(=O)c1ccccc1 [Compound 328]
101 | CCn1c(Oc2ccc3cc[nH]c3c2)nnc1[C@@H](C)NS(=O)(=O)c1ccc(Br)cc1 [Compound 329]
81.6 | CCn1c(Oc2ccc3cc[nH]c3c2)nnc1[C@@H](C)NS(=O)(=O)c1ccc(C(C)(C)C)cc1 [Compound 330]
59.8 | CCn1c(Oc2ccc3cc[nH]c3c2)nnc1[C@@H](C)NS(=O)(=O)c1ccccc1Br [Compound 331]
102 | CCn1c(Oc2ccc3cc[nH]c3c2)nnc1[C@@H](C)NS(=O)(=O)c1cccc(Br)c1 [Compound 333]
106 | CCn1c(Oc2ccc3cc[nH]c3c2)nnc1[C@@H](C)NS(=O)(=O)c1ccc(Cl)cc1 [Compound 335]
56.8 | CCn1c(Oc2ccc3cc[nH]c3c2)nnc1[C@@H](C)NS(=O)(=O)c1ccccc1C#N [Compound 336]
69.2 | CCn1c(Oc2ccc3cc[nH]c3c2)nnc1[C@@H](C)NS(=O)(=O)c1cccc(C#N)c1 [Compound 338]
62.8 | CCn1c(Oc2ccc3cc[nH]c3c2)nnc1[C@@H](C)NS(=O)(=O)c1sc2ccc(Cl)cc2c1C [Compound 339]
100 | CCn1c(Oc2ccc3cc[nH]c3c2)nnc1[C@@H](C)NS(=O)(=O)c1cc(C)c(Cl)cc1C [Compound 340]
92.8 | CCn1c(Oc2ccc3cc[nH]c3c2)nnc1[C@@H](C)NS(=O)(=O)c1cc(Cl)ccc1Cl [Compound 341]
53.6 | CCn1c(Oc2ccc3cc[nH]c3c2)nnc1[C@@H](C)NS(=O)(=O)c1c(Cl)cccc1Cl [Compound 342]
86.5 | CCn1c(Oc2ccc3cc[nH]c3c2)nnc1[C@@H](C)NS(=O)(=O)c1ccc(OC)c(OC)c1 [Compound 343]
90.4 | CCc1ccc(S(=O)(=O)N[C@H](C)c2nnc(Oc3ccc4cc[nH]c4c3)n2CC)cc1 [Compound 345]
89.2 | CCn1c(Oc2ccc3cc[nH]c3c2)nnc1[C@@H](C)NS(=O)(=O)c1ccc(F)cc1 [Compound 346]
50.1 | CCn1c(Oc2ccc3cc[nH]c3c2)nnc1[C@@H](C)NS(=O)(=O)c1c(C)cc(C)cc1C [Compound 347]
109 | CCn1c(Oc2ccc3cc[nH]c3c2)nnc1[C@@H](C)NS(=O)(=O)c1ccc(OC)cc1 [Compound 348]

inhibition at 10 µM [%] | SMILES
75 | CCn1c(Oc2ccc3cc[nH]c3c2)nnc1[C@@H](C)NS(=O)(=O)c1ccc(S(C)(=O)=O)cc1 [Compound 350]
88.5 | CCn1c(Oc2ccc3cc[nH]c3c2)nnc1[C@@H](C)NS(=O)(=O)c1cccc2ccccc12 [Compound 352]
92.3 | CCn1c(Oc2ccc3cc[nH]c3c2)nnc1[C@@H](C)NS(=O)(=O)CCc1cccc2ccccc12 [Compound 353]
98.8 | CCn1c(Oc2ccc3cc[nH]c3c2)nnc1[C@@H](C)NS(=O)(=O)c1ccc(I)cc1 [Compound 355]
95.6 | CCn1c(Oc2ccc3cc[nH]c3c2)nnc1[C@@H](C)NS(=O)(=O)/C=C/c1ccccc1 [Compound 356]
106 | CCn1c(Oc2ccc3cc[nH]c3c2)nnc1[C@@H](C)NS(=O)(=O)c1cc(Cl)c(Cl)cc1Cl [Compound 357]
95.7 | CCn1c(Oc2ccc3cc[nH]c3c2)nnc1[C@@H](C)NS(=O)(=O)c1ccc(C)cc1 [Compound 359]
96.9 | CCn1c(Oc2ccc3cc[nH]c3c2)nnc1[C@@H](C)NS(=O)(=O)c1ccccc1C [Compound 361]
95.1 | CCn1c(Oc2ccc3cc[nH]c3c2)nnc1[C@@H](C)NS(=O)(=O)c1ccc(OC(F)(F)F)cc1 [Compound 362]
96.2 | C=Cc1ccc(S(=O)(=O)N[C@H](C)c2nnc(Oc3ccc4cc[nH]c4c3)n2CC)cc1 [Compound 363]
87.5 | CCn1c(Oc2ccc3cc[nH]c3c2)nnc1[C@@H](C)NS(=O)(=O)c1cccc(C)c1 [Compound 364]
63.2 | CCn1c(Oc2ccc3cc[nH]c3c2)nnc1[C@@H](C)NS(=O)(=O)c1ccc2c(c1)CN(C(=O)C(F)(F)F)CC2 [Compound 366]
94.3 | CCn1c(Oc2ccc3cc[nH]c3c2)nnc1[C@@H](C)NS(=O)(=O)c1cc(C)ccc1C [Compound 367]
60.5 | CCn1c(Oc2ccc3cc[nH]c3c2)nnc1[C@@H](C)NS(=O)(=O)c1ccc(-c2csnn2)s1 [Compound 368]
106 | CCn1c(Oc2ccc3cc[nH]c3c2)nnc1[C@@H](C)NS(=O)(=O)c1ccc(C(=O)OC)n1C [Compound 372]
73.9 | CCCc1ccc(S(=O)(=O)N[C@H](C)c2nnc(Oc3ccc4cc[nH]c4c3)n2CC)cc1 [Compound 377]
71.6 | CCn1c(Oc2ccc3cc[nH]c3c2)nnc1[C@@H](C)NS(=O)(=O)c1c(C)c(C)cc(C)c1C [Compound 378]
89.2 | CCn1c(Oc2ccc3cc[nH]c3c2)nnc1[C@@H](C)NS(=O)(=O)c1cccc(Cl)c1Cl [Compound 379]
66.9 | CCn1c(Oc2ccc3cc[nH]c3c2)nnc1[C@@H](C)NS(=O)(=O)c1cc(C(F)(F)F)cc(C(F)(F)F)c1 [Compound 382]
83.6 | CCn1c(Oc2ccc3cc[nH]c3c2)nnc1[C@@H](C)NS(=O)(=O)c1cc(Cl)cc(Cl)c1 [Compound 383]
88.1 | CCn1c(Oc2ccc3cc[nH]c3c2)nnc1[C@@H](C)NS(=O)(=O)c1cccc(Cl)c1C [Compound 384]
98 | CCn1c(Oc2ccc3cc[nH]c3c2)nnc1[C@@H](C)NS(=O)(=O)c1ccc(F)c(Cl)c1 [Compound 385]
84 | CCn1c(Oc2ccc3cc[nH]c3c2)nnc1[C@@H](C)NS(=O)(=O)c1cccc(OC)c1 [Compound 386]
63.5 | CCn1c(Oc2ccc3cc[nH]c3c2)nnc1[C@@H](C)NS(=O)(=O)c1cc(F)c(Br)cc1F [Compound 387]
65.8 | CCn1c(Oc2ccc3cc[nH]c3c2)nnc1[C@@H](C)NS(=O)(=O)c1c(C)cc(OC)c(C)c1C [Compound 388]

From patent US8022091B2, “Triazole derivative” (Taisho Pharmaceutical Co., Ltd., priority 2006, dated 2011)
